Target: T1, OGA (Mus musculus, UniProt Q9EQQ9)
T1 construct: from tissue; host or cells: mouse brain (sagittal sections, forebrain area)
T1 sequence (Q9EQQ9 1-916): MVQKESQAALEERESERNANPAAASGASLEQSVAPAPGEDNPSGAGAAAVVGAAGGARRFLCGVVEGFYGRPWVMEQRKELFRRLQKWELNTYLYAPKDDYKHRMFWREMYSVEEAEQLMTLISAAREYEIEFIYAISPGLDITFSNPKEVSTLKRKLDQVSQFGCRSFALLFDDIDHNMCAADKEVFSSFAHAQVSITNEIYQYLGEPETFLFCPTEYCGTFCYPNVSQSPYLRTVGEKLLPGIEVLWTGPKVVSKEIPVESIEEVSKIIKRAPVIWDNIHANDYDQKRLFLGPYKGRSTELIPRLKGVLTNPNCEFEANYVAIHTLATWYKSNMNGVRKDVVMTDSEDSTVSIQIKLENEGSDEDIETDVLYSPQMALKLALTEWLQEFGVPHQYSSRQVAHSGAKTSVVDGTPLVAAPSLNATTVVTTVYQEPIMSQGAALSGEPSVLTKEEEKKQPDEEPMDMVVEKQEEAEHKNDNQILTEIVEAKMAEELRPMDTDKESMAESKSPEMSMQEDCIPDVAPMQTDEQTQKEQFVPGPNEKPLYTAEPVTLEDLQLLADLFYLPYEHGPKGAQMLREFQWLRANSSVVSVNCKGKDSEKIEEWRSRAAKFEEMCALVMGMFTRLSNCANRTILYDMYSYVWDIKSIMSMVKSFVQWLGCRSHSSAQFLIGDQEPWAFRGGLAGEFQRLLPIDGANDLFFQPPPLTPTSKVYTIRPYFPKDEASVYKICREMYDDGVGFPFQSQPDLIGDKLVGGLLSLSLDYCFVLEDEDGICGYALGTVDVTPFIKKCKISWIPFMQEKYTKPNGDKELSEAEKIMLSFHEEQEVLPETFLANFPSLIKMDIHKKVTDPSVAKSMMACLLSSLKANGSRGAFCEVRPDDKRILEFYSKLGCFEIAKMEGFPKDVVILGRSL
Assay: Ex vivo OGA occupancy assay using [3H]-ligand (brain sections, autoradiography)
Assay type: in vivo
Settings: po, Male NMRI or C57Bl6j mice, p.o., 24 h after administration, forebrain area, normalised to vehicle, read-out: Occupancy (% +/- sd)
Description: Male NMRI or C57Bl6j mice were treated by oral (p.o.) administration of vehicle or compound. Animals were sacrificed 24 hours after administration. Brains were immediately removed from the skull, hemispheres were separated and the right hemisphere, for ex vivo OGA occupancy assay, was rapidly frozen in dry-ice cooled 2-methylbutane (−40° C.). Twenty […]m-thick sagittal sections were cut using a Leica CM 3050 cryostat-microtome (Leica, Belgium), thaw-mounted on microscope slides (SuperFrost Plus Slides, Thermo Fisher Scientific) and stored at −20° C. until use. After thawing, sections were dried under a cold stream of air. The sections were not washed prior to incubation. The 10 minutes incubation with 3 nM [^3H]-ligand was rigorously controlled. All brain sections (from compound-treated and vehicle-treated animals) were incubated in parallel. After incubation, the excess of [^3H]-ligand was washed off in ice-cold buffer (PBS 1× and 1% BSA) 2 times 10 minutes, followed by a quick dip in distilled water. The sections were then dried under a stream of cold air.
Radioactivity in the forebrain area of brain slices was measured using a β-imager with M3 vision analysis software (Biospace Lab, Paris). Specific binding was calculated as the difference between total binding and non-specific binding measured in Thiamet-G (10 μM) treated sections. […]

## Cc1cc(C2CCCN(C(C)c3ccc4sc(C)nc4n3)C2)cc(C)n1 (racemic) [Compound 39]
  receptor occupancy at 25 mg/kg: 3.33%
